Like-named read-outs stand apart in the source and are kept apart here.

Series [1] in a line: Plasma AVP after oral delivery of AVP in pups (EIA). The class given is in vivo, mice. Particulars: for AVP recovery: rough estimate. On the procedure: To study the specificity of RAGE-dependent transport of OT, we investigated the intestinal absorption of another nonapeptide, arginine vasopressin (AVP[46]) by oral delivery and in the isolated intestines. Transport during the suckling period of development (PND3 and PND5) was confirmed by comparing plasma AVP levels at 10 min after oral delivery of 10 μL of synthetic AVP solution (100 μM; 1 μg/pup) or the same volume of PBS to pups after fasting for 30 min. Plasma AVP concentrations were markedly higher at both PND3 and PND5 in pups administered AVP than in those administered oral saline (Fig. 6a). Two-way ANOVA was used to analyse the interaction between Treatment (PBS/AVP) × Age, F 1,18 = 3.14, P = 0.0933; the Treatment (PBS/AVP) effect, F 1,18 = 5.21, P < 0.05; and the Age effect, F 1,18 = 91.26, P < 0.0001. Bonferroni’s post hoc tests were used to determine differences in AVP levels between PND3 and PND5, *P < 0.05. It is worth noting that the pup size denominator problem was also present in the above experiment. However, if we roughly estimate AVP recovery, it is approximately 4% at PND3 (22 ng was recovered from the effective dose of 555 ng (1 μg/1.8 g pup)) and also 4% at PND5 (16 ng was recovered from the effective dose of 400 ng (1 μg/2.5 g pup)).
Approximately 30 μL of blood was collected from the facial vein of neonates after quick cold anesthesia on ice (Fig. 1a; ref. [67], [68]). The similar blood volume was obtained from the heart after opening of the chest of pups (Figs 1b–d, 3a,b, 6a and 7), from the carotid artery in the pup neck (Fig. 2a) and the tail vein of adults each time (Fig. 6) under ketamine anaesthesia ([…] intraperitoneally).
OT or AVP immunoreactivity levels were quantified by using OT and AVP enzyme immunoassay (EIA) kits (Enzo Life Sciences, NY, USA), respectively. We performed assays in tissue preparations without pre-treatment[66], [70] to compare different tissue samples, though the fractioned sample was recommended, [72]. Blood samples collected as mentioned above were stored at −80 C. The blood samples were thawed and five μL of them were diluted 1:20 in assay buffer on ice and assayed.

For series [2] the following is noted: adult humans, cited from earlier work. Here is the method:
An estimation of bioavailability was performed in adult mice. Fifty ng/mL of OT was detected after oral delivery of 10 μg of OT. Young adults weigh approximately 30 g and have 2.3 mL blood, so approximately 1% of oral OT can be absorbed. We have previously identified OT in the mammary tissues of mouse dams and in the milk curd inside the oesophagi of pups[13]. To determine the OT concentrations in milk, we needed to collect milk from the mothers. One common method is to collect milk after stimulating secretion with external OT. Because such milk contains external OT, we were unable to calculat ...

The nature of series [3]: LC-MS/MS of [Ile13C,15N]OT in plasma after oral administration to pups. The format is in vivo, mice. On the procedure:
Plasma samples were collected from the heart of anesthetized wild-type PND3 pups at 10 min after oral administration of [Ile ^13C, ^15N]OT (100 µM × 10 μL). The samples were fractionated with 1 N salt, and subjected to LC-MS/MS after sample preparation by the deproteination procedure. Figure 7 illustrates two representative traces of multiple reaction monitoring (MRM) chromatograms ([M + H^+] (m/z 1014.6) → b6 ion (m/z 730.6) for the administered [Ile ^13C, ^15N]OT; [M + H^+] (m/z 1021.2) → b6 ion (m/z 723.2) for the internal STD [Pro&Leu^13C, ^15N]OT)[47]. The left MRM chromatogram indicates the presence of full-length stably labelled [Ile ^13C, ^15N]OT in the blood owing to intestinal absorption after oral administration in suckling (PND3) pups (n = 4). The right MRM chromatogram of Fig. 7 corresponds to the internal STD [Pro&Leu^13C, ^15N]OT spiked into the plasma.
Standard (STD) samples of [Ile^13C, ^15N]OT (100 ng/mL) and [Pro&Leu^13C, ^15N]OT (100 ng/mL) were prepared by dilution of stock solutions with 0.1% TFA as necessary. […]
An AB Sciex 4000 QTRAP (CA, USA) was used. The prepared 25 μL sample was injected and separated by a ZORBAX 300SB-C8 column (2.1 × 150 mm, 5 μm; CA, USA) and then detected using the multiple reaction monitoring (MRM) mode of the MS/MS system. […]

Take arginine vasopressin [AVP]: the AVP recovered was found to be 22 ng in series [1] (wild-type pups PND3, 10 min after oral AVP 1 μg/pup, effective dose 555 ng) and 16 ng in series [1] (wild-type pups PND5, 10 min after oral AVP 1 μg/pup, effective dose 400 ng). Further, the AVP recovery entry is reported as “approximately 4%” in series [1] (wild-type pups PND3, 10 min after oral AVP 1 μg/pup, effective dose 555 ng (1 μg/1.8 g pup)) and “approximately 4%” in series [1] (wild-type pups PND5, 10 min after oral AVP 1 μg/pup, effective dose 400 ng (1 μg/2.5 g pup)).

For the compound 1-deamino-8-arginine vasopressin, the Bioavailability is on record as 3.4% in series [2] (intranasal), 0% in series [2] (intrarectal), 0.1% in series [2] (oral) and 0% in series [2] (sublingual).

For `CC[C@H](C)[C@@H]1NC(=O)[C@H](Cc2ccc(O)cc2)NC(=O)[C@@H](N)CSSC[C@@H](C(=O)N2CCC[C@H]2C(=O)N[C@@H](CC(C)C)C(=O)NCC(N)=O)NC(=O)[C@H](CC(N)=O)NC(=O)[C@H](CCC(N)=O)NC1=O` [[Ile ^13C, ^15N]OT, isoleucine [Ile ^13C, ^15N] oxytocin], in series [3] (mouse, in vivo, 1000 ng, wild-type PND3 pups 10 min after oral 100 µM × 10 μL, LC-MS/MS, corrected for dilution x10, n = 4, read-out: Estimated mean concentration in the blood), the level at 10 min is 346 ± 96 ng/mL. Further, in series [3] (wild-type PND3 pup plasma 10 min after oral 100 µM × 10 μL, LC-MS/MS MRM, sample of Fig. 7, before correction for dilution), the “Concentration calculated from ratio of peak areas (10-fold diluted sample)” value is recorded as 27.9 ng/mL.

Compound `CC[C@H](C)[C@@H]1NC(=O)[C@H](Cc2ccc(O)cc2)NC(=O)[C@@H](N)CSSC[C@@H](C(=O)N2CCC[C@H]2C(=O)N[C@@H](CC(C)C)C(=O)NCC(N)=O)NC(=O)[C@H](CC(N)=O)NC(=O)[C@H](CCC(N)=O)NC1=O` showed an OT detected in plasma after oral delivery of 50 ng/mL.

Source of the values: article PMC5554167, “Intestinal transepithelial permeability of oxytocin into the blood is dependent on the receptor for advanced glycation end products in mice” (Scientific Reports, 2017).
